Patent US4556660A, “N-(Bicyclic heterocyclyl)-4-piperidinamines” (Janssen Pharmaceutica N.V., priority 1983, dated 1985)

Legend:
[1] = system: compound 48/80-induced lethality; assay: Protection of rats from compound 48/80-induced lethality; type: in vivo, Male rats of an inbred Wistar strain; conditions: Rattus norvegicus, 4 h, read-out: compound 48/80 lethality test rats-ED50
[2] = system: serotonin; compound 48/80-induced gastric lesions; assay: Antagonistic activity on the effects of serotonin in the gastric lesion test (lesions induced by compound 48/80); type: in vivo, Male rats of a Wistar inbred strain; conditions: Rattus norvegicus, po; read-out: gastric lesion test ED50
[3] = system: compound 48/80-induced cyanosis, lesions in the glandular area of the stomach and abnormal gastric distension; conditions: rats injected with compound 48/80; cited from earlier work

## O=C(c1ccccc1)N(CCN1CCC(Nc2nc3ccccc3n2Cc2ccc(F)cc2)CC1)c1ncccn1 [Compound 100, N-[2-[4-[[1-fluorophenyl)methyl]-1H-benzimidazol-2-yl]amino]-1-piperidinyl]ethyl]-N-(2-pyrimidinyl)benzamide (E)-2-butenedioate (1:2)]
[1]
  ED50: 0.08 mg/kg
[2]
  ED50: 0.63 mg/kg

## Fc1ccc(Cn2c(NC3CCN(CCNC(=S)Nc4cccnc4)CC3)nc3ccccc32)cc1 [Compound 104, N-[2-[4-[[1-[(4-fluorophenyl)methyl]-1H-benzimidazol-2-yl]amino]-1-piperidinyl]ethyl]-N'-(3-pyridinyl)thiourea]
[1]
  ED50: 0.63 mg/kg
[2]
  ED50: 0.63 mg/kg

## Fc1ccc(Cn2c(NC3CCN(CCNC(=S)Nc4ccccn4)CC3)nc3ccccc32)cc1 [Compound 105, N-[2-[4-[[1-[(4-fluorophenyl)methyl]-1H-benzimidazol-2-yl]amino]-1-piperidinyl]ethyl]-N'-(2-pyridinyl)thiourea]
[1]
  ED50: 0.63 mg/kg
[2]
  ED50: 0.63 mg/kg

## Nc1cccnc1NC(=S)NCCN1CCC(Nc2nc3ccccc3n2Cc2ccc(F)cc2)CC1 [Compound 107, N-(3-amino-2-pyridinyl)-N'-[2-[4-[[1-[(4-fluorophenyl)methyl]-1H-benzimidazol-2-yl]amino]-1-piperidinyl]ethyl]thiourea]
[1]
  ED50: 0.16 mg/kg
[2]
  ED50: 0.31 mg/kg

## O=C(O)/C=C/C(=O)O.O=C(O)/C=C/C(=O)O.O=C(OCCN1CCC(Nc2nc3ccccc3n2Cc2ccc(F)cc2)CC1)c1ccc2ccccc2n1 [Compound 112, [2-[4-[[1-[(4-fluorophenyl)methyl]-1H-benzimidazol-2-yl]amino]-1-piperidinyl]ethyl]-2-quinolinecarboxylate (E)-2-butenedioate (1:2)]
[1]
  ED50: 0.04 mg/kg
[2]
  ED50: 0.63 mg/kg

## Nc1nccnc1C(=O)NCCN1CCC(Nc2nc3ccccc3n2Cc2ccc(F)cc2)CC1 [Compound 113, 3-amino-N-[2-[4-[[1-[(4-fluorophenyl)methyl]-1H-benzimidazol-2-yl]amino]-1-piperidinyl]ethyl]-2-pyrazinecarboxamide]
[1]
  ED50: 0.04 mg/kg
[2]
  ED50: 0.16 mg/kg

## O=C(NCCN1CCC(Nc2nc3ccccc3n2Cc2ccc(F)cc2)CC1)c1ccc(Cl)nc1.O=C(O)/C=C/C(=O)O.O=C(O)/C=C/C(=O)O [Compound 116, 6-chloro-N-[2-[4-[[1-[(4-fluorophenyl)methyl]-1H-benzimidazol-2-yl]amino]-1-piperidinyl]ethyl]-3-pyridinecarboxamide (E)-2-butenedioate (1:2)]
[1]
  ED50: 0.31 mg/kg
[2]
  ED50: 2.5 mg/kg

## N#CCN1CCC(Nc2nc3ncccc3n2Cc2ccc(F)cc2)CC1 [Intermediate 79]
[1]
  ED50: 0.16 mg/kg
[2]
  ED50: 0.63 mg/kg

## CN(C)CCCSc1ccccc1NC(=O)/C=C/c1ccccc1 [cinanserin]
[3]
  prevention of cyanosis of ears and extremities, lesions in the glandular area of the stomach and abnormal gastric distension: prevent completely

## CN1CCC(=C2c3ccccc3C=Cc3ccccc32)CC1 [cyproheptadine]
[3]
  prevention of cyanosis of ears and extremities, lesions in the glandular area of the stomach and abnormal gastric distension: prevent completely

## CN1C[C@H](CNC(=O)OCc2ccccc2)C[C@@H]2c3cccc4c3c(cn4C)C[C@H]21 [metergoline]
[3]
  prevention of cyanosis of ears and extremities, lesions in the glandular area of the stomach and abnormal gastric distension: prevent completely

## CC[C@@H](CO)NC(=O)[C@@H]1C=C2c3cccc4c3c(cn4C)C[C@H]2N(C)C1 [methysergide]
[3]
  prevention of cyanosis of ears and extremities, lesions in the glandular area of the stomach and abnormal gastric distension: prevent completely

## CN1CCN2c3ccccc3Cc3ccccc3C2C1 (stereo not drawn) [mianserin]
[3]
  prevention of cyanosis of ears and extremities, lesions in the glandular area of the stomach and abnormal gastric distension: prevent completely

## NC(=O)C1(N2CCCCC2)CCN(CCCC(=O)c2ccc(F)cc2)CC1 [pipamperone]
[3]
  prevention of cyanosis of ears and extremities, lesions in the glandular area of the stomach and abnormal gastric distension: prevent completely

## CN1CCC(=C2c3ccccc3CCc3sccc32)CC1 [pizotifen]
[3]
  prevention of cyanosis of ears and extremities, lesions in the glandular area of the stomach and abnormal gastric distension: prevent completely

## O=C(CCCN1CCC2(CC1)C(=O)NCN2c1ccccc1)c1ccc(F)cc1 [spiperone]
[3]
  prevention of cyanosis of ears and extremities, lesions in the glandular area of the stomach and abnormal gastric distension: prevent completely
